Measurements as given in PubChem BioAssay (NCI).
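GI50 = concentration required for 50% inhibition of growth. TGI: concentration producing complete growth inhibition.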

Experiments:
Experiment in all cases: NCI-60 cell line screen, 384-well format
[1] = test system: CAKI-1 renal
[2] = test system: HT29 colon
[3] = test system: MDA-MB-231 breast
[4] = test system: NCI-H460 NSCLC
[5] = test system: RXF 393 renal
[6] = test system: SF-268 CNS
[7] = test system: SF-295 CNS
[8] = test system: SN12C renal
[9] = test system: SNB-75 CNS
[10] = test system: TK-10 renal
[11] = test system: UACC-257 melanoma
[12] = test system: UACC-62 melanoma
[13] = test system: UO-31 renal

C[C@H]1C[C@@H](n2c(Nc3ccc(OC(F)(F)F)cc3)nc3cc(CCC(=O)O)ccc32)CC(C)(C)C1
GI50 [1]: 17.2 µM | TGI [1]: 31 µM | GI50 [2]: 12.7 µM | TGI [2]: 25.6 µM | GI50 [3]: 16.4 µM | TGI [3]: 30 µM | GI50 [4]: 13.6 µM | TGI [4]: 26.8 µM | GI50 [5]: 13 µM | TGI [5]: 25.7 µM | GI50 [6]: 13 µM | TGI [6]: 25.8 µM | GI50 [7]: 11.8 µM | TGI [7]: 24.2 µM | GI50 [8]: 15.7 µM | TGI [8]: 29.2 µM | GI50 [9]: 20.3 µM | TGI [9]: 34.6 µM | GI50 [10]: 16 µM | TGI [10]: 29.7 µM | GI50 [11]: 17.8 µM | TGI [11]: 31.8 µM | GI50 [12]: 15.2 µM | TGI [12]: 28.6 µM | GI50 [13]: 11.9 µM | TGI [13]: 24.4 µM
